Reference: patent US20210315893A1 (Galapagos NV, priority 2017, published 2021)

Legend:
[1] = target: T1, human GPCR sphingosine 1-phosphate receptor 1 (Homo sapiens, UniProt P21453); assay: S1PR1 selectivity Ca2+ flux assay (antagonist readout); assay type: cell-based; conditions: antagonist readout, CHO cells overexpressing human S1PR1 and Gq, S1P at EC80 (6 nM); read-out: S1P1 EC50 (nM), S1P1 antagonist EC50
T1 construct: host or cells: CHO
Summary of the method: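 Antagonist mode: S1P challenge follows 15 min compound preincubation at 37 °C. Cells are CHO stably expressing human S1PR1, serum-starved 1 h (0.1% FAF BSA), loaded with Fluo 8. Peak-over-baseline fluorescence ratio is normalized to positive/negative controls; IC50 from logistic curve fit.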

HFL-1 cells [2] = assay: IL8 assay in the presence of Human Serum Albumin; conditions: HFL1, read-out: HSA IL8 EC50
HFL-1 cells [3] = assay: IL-8 production assay (S1P induced IL-8); assay type: cell-based; conditions: Homo sapiens, HFL1; S1P (1 μM) induced IL-8 in HFL-1 cells, starvation medium without HSA; read-out: IL8 EC50
Summary of the method: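 HFL-1 fibroblasts in low-serum medium were pretreated 1 h with a 10-point 1/3 series of compound starting at 30 μM (0.3% DMSO).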

S1PR2 = target: T2, S1PR2 (Homo sapiens, UniProt O95136); assay: S1PR2 binding assay (competition with radioactively labeled S1P, SpA); conditions: membranes from stable cell line over expressing S1PR2, SpA beads; read-out: S1P2 EC50 (nM), S1PR2 binding EC50
T2 construct: expressed in transfected cells
Summary of the method: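 Scintillation proximity read-out after 2 h room-temperature incubation of compound, [3H]S1P and S1PR2-overexpressing cell membranes on WGA-coated beads. Buffer: 20 mM Tris pH 7.5, 100 mM NaCl, 10 mM MgCl2, 1 mM Na3VO4, 0.4% fatty-acid-free BSA; plates counted immediately after centrifugation.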

[4] = target: T3, human GPCR sphingosine 1-phosphate receptor 5 (Homo sapiens, UniProt Q9H228); assay: S1PR5 selectivity Ca2+ flux assay (antagonist readout); assay type: cell-based; conditions: CHO cells overexpressing human S1PR5 and Gq, agonist at EC80 (20 nM), read-out: S1P5 EC50 (nM), S1P5 antagonist EC50
T3 construct: host or cells: CHO
Summary of the method: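 Antagonist readout: after 15 min compound preincubation at 37° C, human S1PR5/Gq CHO cells loaded with Fluo 8 dye received an EC80 challenge of S1PR5-specific agonist, and fluorescence was recorded for 3 min. Maximal-over-background ratios, normalized as % inhibition, gave IC50 by logistic fit.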

[5] = target: T4, human GPCR sphingosine 1-phosphate receptor 2 (Homo sapiens, UniProt O95136); assay: S1PR2 antagonist Ca2+ flux assay; assay type: cell-based; conditions: antagonist mode, CHO-S1PR2 cells, S1P at EC80, Ca2+ fluorescence; read-out: S1P2 EC50 (nM), S1P2 antagonist EC50
T4 construct: host or cells: CHO
Summary of the method: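 Antagonist mode: 15 min after compound addition, S1P (EC80) stimulates Fluo8-loaded, 1 h-starved CHO-S1PR2 cells, Ca2+ read over 3 min; a prior 3-min read checks compound agonism. EC50 from peak/baseline fluorescence ratio, normalised versus vehicle and S1P EC50 (antagonist) or EC100 (agonist).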

T3 sequence (Q9H228 whole entry): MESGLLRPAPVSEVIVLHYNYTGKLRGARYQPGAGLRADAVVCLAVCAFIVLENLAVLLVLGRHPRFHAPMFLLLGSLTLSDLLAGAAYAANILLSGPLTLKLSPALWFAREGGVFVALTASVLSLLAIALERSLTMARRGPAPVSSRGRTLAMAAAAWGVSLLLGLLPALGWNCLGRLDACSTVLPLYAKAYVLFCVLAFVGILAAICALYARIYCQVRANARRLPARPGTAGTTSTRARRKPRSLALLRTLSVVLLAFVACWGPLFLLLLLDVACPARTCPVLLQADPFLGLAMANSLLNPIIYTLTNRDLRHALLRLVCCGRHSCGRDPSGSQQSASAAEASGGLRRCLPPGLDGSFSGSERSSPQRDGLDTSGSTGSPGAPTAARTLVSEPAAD
T4 sequence (O95136 whole entry): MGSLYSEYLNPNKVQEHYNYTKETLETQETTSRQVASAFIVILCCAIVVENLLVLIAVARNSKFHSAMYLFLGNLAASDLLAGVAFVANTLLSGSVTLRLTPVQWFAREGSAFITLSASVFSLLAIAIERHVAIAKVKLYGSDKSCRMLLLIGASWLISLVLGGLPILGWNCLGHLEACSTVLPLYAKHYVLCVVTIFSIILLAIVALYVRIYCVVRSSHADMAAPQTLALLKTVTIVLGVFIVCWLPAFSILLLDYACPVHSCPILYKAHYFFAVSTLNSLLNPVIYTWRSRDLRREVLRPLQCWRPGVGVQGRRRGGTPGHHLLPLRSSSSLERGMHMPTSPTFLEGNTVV
T2 sequence (O95136 whole entry): as above
T1 sequence (P21453 whole entry): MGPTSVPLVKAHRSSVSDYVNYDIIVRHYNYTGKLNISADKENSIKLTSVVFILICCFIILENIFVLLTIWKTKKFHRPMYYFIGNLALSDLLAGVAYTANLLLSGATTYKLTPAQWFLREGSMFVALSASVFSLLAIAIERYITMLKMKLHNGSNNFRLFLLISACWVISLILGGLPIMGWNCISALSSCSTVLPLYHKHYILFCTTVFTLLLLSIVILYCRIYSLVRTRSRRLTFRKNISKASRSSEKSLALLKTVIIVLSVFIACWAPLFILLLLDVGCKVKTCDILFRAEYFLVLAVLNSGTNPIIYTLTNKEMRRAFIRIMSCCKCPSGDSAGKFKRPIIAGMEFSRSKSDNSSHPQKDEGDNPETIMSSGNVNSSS

Structure (SMILES)	EC50 [1]	EC50 (HFL-1 cells [2])	EC50 (HFL-1 cells [3])	EC50 (S1PR2)	EC50 [4]	EC50 [5]
COCCOc1cc2[nH]c(Cc3nn(CC(=O)N4CCOCC4)c(=O)c4ccccc34)nc2cc1Cl [Compound 174, 4-[[5-chloro-6-(2-methoxyethoxy)-1H-benzimidazol-2-yl]methyl]-2-(2-morpholino-2-oxo-ethyl)phthalazin-1-one]	≥ 19800 nM	58.9 nM	20.1 nM	56.8 nM	19800 nM	34.9 nM
COCCOc1cc2nc(Cc3nn(C4CCNC4)c(=O)c4ccccc34)[nH]c2cc1C#N (stereo not drawn) [Compound 65, 6-(2-methoxyethoxy)-2-[(4-oxo-3-pyrrolidin-3-yl-phthalazin-1-yl)methyl]-3H-benzimidazole-5-carbonitrile]	≥ 19800 nM	91.1 nM	108 nM	1030 nM	19800 nM	2080 nM
CS(=O)(=O)NC(=O)Cn1nc(Cn2cc3cc(OCC4CC4)c(Cl)cc3n2)c2ccccc2c1=O [Compound 243, 2-[4-[[6-chloro-5-(cyclopropylmethoxy)indazol-2-yl]methyl]-1-oxo-phthalazin-2-yl]-N-methylsulfonyl-acetamide]	≥ 19800 nM	2580 nM	764 nM	400 nM	19800 nM	9 nM
CCOc1cc2[nH]n(Cc3nn(CC(=O)O)c(=O)c4ccccc34)c(=O)c2cc1Cl [Compound 128, 2-[4-[(5-chloro-6-ethoxy-3-oxo-1H-indazol-2-yl)methyl]-1-oxo-phthalazin-2-yl]acetic acid]	≥ 19800 nM	701 nM	30.8 nM	1970 nM	19800 nM	28.3 nM
O=c1c2ccccc2c(Cc2nc3cc(Cl)c(OC(F)(F)F)cc3[nH]2)nn1CC1CCNCC1 [Compound 56, 4-[[6-chloro-5-(trifluoromethoxy)-1H-benzimidazol-2-yl]methyl]-2-(4-piperidylmethyl)phthalazin-1-one]	≥ 19800 nM	2930 nM	3330 nM	722 nM	19800 nM	839 nM
O=c1c2ccccc2c(Cc2nc3cc(Cl)c(OC(F)(F)F)cc3[nH]2)nn1CC1CCNC1 (stereo not drawn) [Compound 57, 4-[[6-chloro-5-(trifluoromethoxy)-1H-benzimidazol-2-yl]methyl]-2-(pyrrolidin-3-ylmethyl)phthalazin-1-one]	≥ 19800 nM	501 nM	552 nM	457 nM	19800 nM	163 nM
O=C(O)C1(n2nc(Cn3cc4cc(OCC5CC5)c(Cl)cc4n3)c3ccccc3c2=O)CC1 [Compound 95, 1-[4-[[6-chloro-5-(cyclopropylmethoxy)indazol-2-yl]methyl]-1-oxo-phthalazin-2-yl]cyclopropanecarboxylic acid]	≥ 19800 nM	1830 nM	53.4 nM	208 nM	19800 nM	19.4 nM
O=C(O)Cn1nc(Cc2nc3cc(Cl)c(OCC4CC4)c(F)c3[nH]2)c2ccccc2c1=O [Compound 116, 2-[4-[[5-chloro-6-(cyclopropylmethoxy)-7-fluoro-1H-benzimidazol-2-yl]methyl]-1-oxo-phthalazin-2-yl]acetic acid]	≥ 19800 nM	566 nM	77.8 nM	183 nM	19900 nM	25.2 nM
O=C(O)c1cn(Cc2cn3cc(OCC4CC4)c(Cl)cc3n2)c2ccccc2c1=O [Compound 84, 1-[[7-chloro-6-(cyclopropylmethoxy)imidazo[1,2-a]pyridin-2-yl]methyl]-4-oxo-quinoline-3-carboxylic acid]	≥ 19800 nM	2460 nM	198 nM	459 nM	19800 nM	41.9 nM
